According to patent publication US7498343B2, “Mycobacterial inhibitors” (priority 2002, dated 2009):
≈ marks a conversion by molar mass, not a printed value. Read-outs that look alike come from different tables or passages of the source.

How the values were obtained:
[1] = tested on: Mycobacterium tuberculosis (strain H37RV); assay: In-vitro method for testing compounds against M. tuberculosis (resazurin growth inhibition, MIC); type: cell-based; conditions: MIC data representing IC90's, 7 days incubation, resazurin fluorescence
M. Smegmatis ATCC607 = assay: In-vitro method for testing compounds for anti-bacterial activity against strain M. smegmatis ATCC607 (Alamar Blue growth inhibition); type: cell-based; conditions: M. smegmatis ATCC607, pIC50 = -logIC50, IC50 in M, 50% inhibitory concentration for bacterial growth, 48 hours incubation
How it was run: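 About 250 CFU/well M. smegmatis ATCC607 in Mueller-Hinton broth exposed to five-fold serial compound dilutions, 48 h at 37 °C, humidified 5% CO2. Growth read by Alamar Blue fluorescence (ex 530/em 590 nm) after 2 h further incubation; % growth inhibition calculated.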

[2] = Mycobacterium tuberculosis, H37RV, 168 h, read-out: MIC

COc1nc2ccc(Br)cc2cc1C(c1ccccc1)C(O)(CCc1ccccc1)CCN(C)C (single isomer, unassigned) [Compound 96]
MIC [1]: 21.24 microgram/ml
pIC50 (M. Smegmatis ATCC607): 6.2

COc1nc2ccc(Br)cc2cc1C(c1ccccc1)C(O)(CCN(C)C)c1ccc2c(c1)OCO2 (racemic) [Compound 75]
MIC [1]: 1.74 microgram/ml
pIC50 (M. Smegmatis ATCC607): 7.9

COc1nc2ccccc2cc1C(c1ccccc1)C(C)(O)CCN(C)C (single isomer, unassigned) [Compound 43]
MIC [1]: 44.34 microgram/ml
pIC50 (M. Smegmatis ATCC607): 4.4

COc1nc2ccc(Br)cc2cc1C(c1ccccc1)C(O)(CC[N+](C)(C)[O-])c1cccc2ccccc12 (single isomer, unassigned) [Compound 100]
MIC [1]: 45.40 microgram/ml
pIC50 (M. Smegmatis ATCC607): 7.1

COc1nc2ccccc2cc1C(c1ccccc1)C(O)(CCN(C)C)c1cccc(F)c1 (racemic) [Compound 94]
MIC [1]: 1.77 microgram/ml
pIC50 (M. Smegmatis ATCC607): 7.9

COc1nc2ccc(Br)cc2cc1C(c1ccccc1)C(O)(CCCCN(C)C)c1ccc2ccccc2c1 (single isomer, unassigned) [Compound 190]
MIC [1]: 1.85 microgram/ml
pIC50 (M. Smegmatis ATCC607): 6.5

COc1nc2ccc(Br)cc2cc1C(c1ccccc1)C(O)(CCN(C)C)c1cc(F)cc(F)c1 (stereo not shown) [Compound 118]
MIC [1]: 0.01 microgram/ml
pIC50 (M. Smegmatis ATCC607): 9.1

COc1nc2c(C)cc(Br)cc2cc1C(c1ccccc1)C(O)(CCN(C)C)c1cccc(F)c1 (single isomer, unassigned) [Compound 219]
MIC [1]: 42.69 microgram/ml
pIC50 (M. Smegmatis ATCC607): 5.8

COc1nc2ccc(Br)cc2cc1C(c1ccccc1)C(O)(CCn1cncn1)c1cccc2ccccc12 (stereo not shown) [Compound 172]
MIC [1, 2]: 7.3 µg/mL (≈ 12.6 µM)
IC50 (M. Smegmatis ATCC607; Mycolicibacterium smegmatis, ATCC607, 48 h, read-out: pIC50 (converted)): 2000 nM

COc1nc2ccc(Br)cc2cc1C(c1ccccc1)C(O)(CCN(C)C)c1ccc(F)c(F)c1 (racemic) [Compound 196]
MIC [1]: 1.71 microgram/ml
pIC50 (M. Smegmatis ATCC607): 6.6

COc1nc2cc(C)c(C)cc2cc1C(c1ccccc1)C(O)(CCN(C)C)c1cccc2ccccc12 (single isomer, unassigned) [Compound 229]
MIC [1]: 40.09 microgram/ml
pIC50 (M. Smegmatis ATCC607): 7.1

COc1nc2ccc(Br)cc2cc1C(c1ccccc1)C(O)(CCN1CCOCC1)c1ccccc1 (racemic) [Compound 124]
MIC [1]: 54.75 microgram/ml
pIC50 (M. Smegmatis ATCC607): 5.3

COc1nc2ccc(Br)cc2cc1C(c1ccccc1)C(O)(CCN(C)C)c1cc(Br)cc2ccccc12 (single isomer, unassigned) [Compound 150]
MIC [1]: 63.44 microgram/ml
pIC50 (M. Smegmatis ATCC607): 5.7

COc1nc2ccccc2cc1C(c1ccccc1)C(C)(O)CCN(C)C (single isomer, unassigned) [Compound 42]
MIC [1]: 44.34 microgram/ml
pIC50 (M. Smegmatis ATCC607): 6.3

COc1nc2ccc(Br)cc2cc1C(c1ccccc1)C(O)(CCN(C)C)c1cccc2ccccc12 (stereo not shown) [Compound 15]
MIC [1]: 2.78 microgram/ml
pIC50 (M. Smegmatis ATCC607): 6.5

COc1nc2ccc(Br)cc2cc1C(c1ccccc1)C(O)(CCN1CCCC1)c1ccc2ccccc2c1 (stereo not shown) [Compound 171]
MIC [1]: 46.19 microgram/ml
pIC50 (M. Smegmatis ATCC607): 4.3

COc1nc2ccc(Br)cc2cc1C(c1ccccc1)C(O)(CCN(C)C)c1ccc2c(c1)OCO2 (racemic) [Compound 76]
MIC [1]: 1.74 microgram/ml
pIC50 (M. Smegmatis ATCC607): 5.9

COc1nc2ccc(Br)cc2cc1C(c1ccccc1)C(O)(CCN(C)C)c1ccc2c(c1)OCCO2 (racemic) [Compound 77]
MIC [1]: 8.93 microgram/ml
pIC50 (M. Smegmatis ATCC607): 7.2

COc1nc2ccc(Br)cc2cc1C(c1ccccc1)C(O)(CCCN(C)C)c1cccc2ccccc12 (single isomer, unassigned) [Compound 186]
MIC [1]: 56.96 microgram/ml
pIC50 (M. Smegmatis ATCC607): 4.5

COc1nc2ccc(Br)cc2cc1C(c1ccccc1)C(O)(CCCN1CCOCC1)c1cccc2ccccc12 (single isomer, unassigned) [Compound 210]
MIC [1]: 61.16 microgram/ml
pIC50 (M. Smegmatis ATCC607): 6.1

COc1nc2ccc(Br)cc2cc1C(c1ccccc1)C(O)(CCN(C)C)c1ccc2c(Br)cccc2c1 (single isomer, unassigned) [Compound 130]
MIC [1]: 50.32 microgram/ml
pIC50 (M. Smegmatis ATCC607): 5.3

COc1nc2ccc(Br)cc2cc1C(c1ccccc1)C(O)(CC[N+](C)(C)C)c1cccc2ccccc12.[I-] (single isomer, unassigned) [Compound 102]
MIC [1]: 2.21 microgram/ml
pIC50 (M. Smegmatis ATCC607): 6.5

CN(C)CCC(O)(c1cccc2ccccc12)C(c1ccccc1)c1cc2cc(Br)ccc2nc1N1CCOCC1 (racemic) [Compound 79]
MIC [1]: 2.43 microgram/ml
pIC50 (M. Smegmatis ATCC607): 7.2

COc1nc2ccc(F)cc2cc1C(c1ccccc1)C(O)(CCN(C)C)c1ccccc1 (single isomer, unassigned) [Compound 28]
MIC [1]: 1.41 microgram/ml
pIC50 (M. Smegmatis ATCC607): 7.3

CSc1nc2ccc(Br)cc2cc1C(c1ccccc1)C(O)(CCN(C)C)c1ccccc1 (single isomer, unassigned) [Compound 32]
MIC [1]: 0.33 microgram/ml
pIC50 (M. Smegmatis ATCC607): 7.4

COc1nc2ccc(Br)cc2cc1C(c1ccccc1)C(O)(CCN1CCCC1)c1ccc2ccccc2c1 (stereo not shown) [Compound 170]
MIC [1, 2]: 46.2 µg/mL (≈ 79.4 µM)
pIC50 (M. Smegmatis ATCC607): 5.6

COc1nc2ccc(Br)cc2cc1C(c1ccccc1)C(O)(CCCCN(C)C)c1ccccc1 (single isomer, unassigned) [Compound 65]
MIC [1]: 1.69 microgram/ml
pIC50 (M. Smegmatis ATCC607): 5.7

COc1nc2ccc(-c3ccc(CO)o3)cc2cc1C(c1ccccc1)C(O)(CCN(C)C)c1cccc2ccccc12 (single isomer, unassigned) [Compound 212]
MIC [1]: 9.08 microgram/ml
pIC50 (M. Smegmatis ATCC607): 6.0

COc1nc2ccc(Br)cc2cc1C(c1ccccc1)C(O)(CCn1ccnc1)c1cccc2ccccc12 (single isomer, unassigned) [Compound 173]
MIC [1]: 57.85 microgram/ml
pIC50 (M. Smegmatis ATCC607): 4.7

COc1nc2ccc(Br)cc2cc1C(c1ccc(Cl)cc1)C(O)(CCN(C)C)c1cccc2ccccc12 (racemic) [Compound 73]
MIC [1]: 23.49 microgram/ml
pIC50 (M. Smegmatis ATCC607): 8.0

COc1nc2ccc(Br)cc2cc1C(c1ccccc1)C(O)(CCN1CCCCC1)c1ccc2cc(Br)ccc2c1 (stereo not shown) [Compound 166]
MIC [1]: 67.45 microgram/ml
pIC50 (M. Smegmatis ATCC607): 4.1

COc1nc2ccc(Br)cc2cc1C(c1ccccc1)C(O)(CCN1CCCCC1)c1cccc2ccccc12 (stereo not shown) [Compound 146]
MIC [1]: 59.56 microgram/ml
pIC50 (M. Smegmatis ATCC607): 4.8

CN(C)CCC(O)(c1ccccc1)C(c1ccccc1)c1cc2cc(Br)ccc2n(C)c1=O (single isomer, unassigned) [Compound 107]
MIC [1]: 44.13 microgram/ml
pIC50 (M. Smegmatis ATCC607): 5.8

COc1nc2ccc(Br)cc2cc1C(c1ccccc1)C(O)(CCN1CCCCC1)c1ccc2cc(Br)ccc2c1 (stereo not shown) [Compound 155]
MIC [1, 2]: 67.5 µg/mL (≈ 100 µM)
pIC50 (M. Smegmatis ATCC607): 4.9

COc1nc2ccc(Br)cc2cc1C(c1ccccc1)C(O)(CN(C)C)c1ccccc1 (single isomer, unassigned) [Compound 61]
MIC [1]: 39.04 microgram/ml
pIC50 (M. Smegmatis ATCC607): 4.5

COc1nc2ccc(Br)cc2cc1C(c1ccccc1)C(O)(CC[N+](C)(C)C)c1cccc2ccccc12.[I-] (racemic) [Compound 103]
MIC [1]: 5.54 microgram/ml
pIC50 (M. Smegmatis ATCC607): 5.9

COc1nc2ccc(Br)cc2cc1C(c1ccccc1)C(O)(CC[N+](C)(C)C)c1cccc2ccccc12.[I-] (single isomer, unassigned) [Compound 121]
MIC [1]: 2.21 microgram/ml
pIC50 (M. Smegmatis ATCC607): 5.9

COc1nc2c(C)cc(Br)cc2cc1C(c1ccccc1)C(O)(CCN(C)C)c1cccc(F)c1 (single isomer, unassigned) [Compound 220]
MIC [1]: 8.52 microgram/ml
pIC50 (M. Smegmatis ATCC607): 5.3

COc1nc2ccc(Cl)cc2cc1C(c1ccccc1)C(O)(CCN(C)C)c1ccccc1 (single isomer, unassigned) [Compound 30]
MIC [1]: 1.46 microgram/ml
pIC50 (M. Smegmatis ATCC607): 7.8

COc1nc2ccc(Br)cc2cc1C(c1ccccc1)C(O)(CCN(C)C)c1ccc2c(c1)OCCO2 (racemic) [Compound 78]
MIC [1]: 44.76 microgram/ml
pIC50 (M. Smegmatis ATCC607): 5.8

COc1nc2ccc(Br)cc2cc1C(c1ccccc1)C(O)(CCN1CCSCC1)c1ccccc1 (racemic) [Compound 55]
MIC [1]: 44.77 microgram/ml
pIC50 (M. Smegmatis ATCC607): 5.1

COc1nc2ccc(Br)cc2cc1C(c1ccccc1)C(O)(CCN1CCOCC1)c1ccc2ccccc2c1 (single isomer, unassigned) [Compound 139]
MIC [1]: 59.76 microgram/ml
pIC50 (M. Smegmatis ATCC607): 4.1

COc1nc2ccc(Br)cc2cc1C(c1ccc(F)cc1)C(O)(CCN(C)C)c1cccc2ccccc12 (racemic) [Compound 206]
MIC [1]: 9.09 microgram/ml
pIC50 (M. Smegmatis ATCC607): 6.5

COc1nc2ccc(Br)cc2cc1C(c1ccccc1)C(O)(CN(C)C)c1ccccc1 (single isomer, unassigned) [Compound 62]
MIC [1]: 7.79 microgram/ml
pIC50 (M. Smegmatis ATCC607): 5.9

COc1nc2cc(Br)ccc2cc1C(c1ccccc1)C(O)(CCN(C)C)c1cccc2ccccc12 (single isomer, unassigned) [Compound 217]
MIC [1]: 44.13 microgram/ml
pIC50 (M. Smegmatis ATCC607): 6.9

COc1nc2ccc(Br)cc2cc1C(c1ccccc1)C(O)(CCN(C)C)c1ccc(Cl)cc1 (single isomer, unassigned) [Compound 16]
MIC [1]: 0.34 microgram/ml
pIC50 (M. Smegmatis ATCC607): 6.8

COc1nc2ccc(Br)cc2cc1C(c1ccccc1)C(O)(CCN(C)C)c1ccc(Cl)cc1 (single isomer, unassigned) [Compound 17]
MIC [1]: 1.71 microgram/ml
pIC50 (M. Smegmatis ATCC607): 6.5
